For eleven molecules, IC50 and solubility results are on record in patent US20090170867A1, “TRPV1 ANTAGONISTS INCLUDING SULFONAMIDE SUBSTITUENT AND USES THEREOF” (Shionogi & Co., Ltd., priority 2007, published 2009).

Data set [1] has as its target T1, human TRPV1 (Homo sapiens, UniProt Q8NER1).
T1 construct: using primers designed surrounding the complete hTRPV1 open reading frame; expressed in transfected cells; host or cells: CHO-K1 cells stably transfected with pcDNA3.1(-)-hVR1 plasmid
Kind of data set: Capsaicin-based assay, Protocol 2 (TRPV1/CHO cells, Fluo-4, FLIPR). The format is cell-based. Particulars: capsaicin 100 nM final, mean ± SEM, number of trials in parentheses, read-out: TRPV1 IC50 Potency, Human Capsaicin CHO (hCAP-CHO). An outline of the steps:
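CHO cells stably transfected with human TRPV1 cDNA, kept under G418 selection, loaded with 3 μM Fluo-4 for 1 h. Calcium fluorescence followed on FLIPR after a 15 s baseline against capsaicin challenge; compounds at final 100 μM to 1.5625 μM, curves fitted over the full time course.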

Another data set in a line: Aqueous solubility. Particulars: aqueous solution. The data set is classed as physicochemical.
Data set [2] addresses T1, human TRPV1. Kind of data set: pH-based assay, Protocol 2 (TRPV1/CHO cells, Fura-2 AM, FDSS-3000, pH 5.0-5.1). The format is cell-based. Particulars: H2SO4 agonist, mean ± SEM, number of trials in parentheses, read-out: TRPV1 IC50 Potency, Human pH CHO (hpH-CHO).
Where [3] appears, read: pH 1.2, simulated gastric fluid, read-out: aqueous solubility at pH 1.2.
Where [4] appears, read: pH 6.8, aqueous buffer, read-out: aqueous solubility at pH 6.8.

Values after ≈ are worked out from the molar mass of the structure shown. Read-outs that look alike come from different tables or passages of the source. Bounds are passed on as bounds.

T1 sequence (Q8NER1 whole entry): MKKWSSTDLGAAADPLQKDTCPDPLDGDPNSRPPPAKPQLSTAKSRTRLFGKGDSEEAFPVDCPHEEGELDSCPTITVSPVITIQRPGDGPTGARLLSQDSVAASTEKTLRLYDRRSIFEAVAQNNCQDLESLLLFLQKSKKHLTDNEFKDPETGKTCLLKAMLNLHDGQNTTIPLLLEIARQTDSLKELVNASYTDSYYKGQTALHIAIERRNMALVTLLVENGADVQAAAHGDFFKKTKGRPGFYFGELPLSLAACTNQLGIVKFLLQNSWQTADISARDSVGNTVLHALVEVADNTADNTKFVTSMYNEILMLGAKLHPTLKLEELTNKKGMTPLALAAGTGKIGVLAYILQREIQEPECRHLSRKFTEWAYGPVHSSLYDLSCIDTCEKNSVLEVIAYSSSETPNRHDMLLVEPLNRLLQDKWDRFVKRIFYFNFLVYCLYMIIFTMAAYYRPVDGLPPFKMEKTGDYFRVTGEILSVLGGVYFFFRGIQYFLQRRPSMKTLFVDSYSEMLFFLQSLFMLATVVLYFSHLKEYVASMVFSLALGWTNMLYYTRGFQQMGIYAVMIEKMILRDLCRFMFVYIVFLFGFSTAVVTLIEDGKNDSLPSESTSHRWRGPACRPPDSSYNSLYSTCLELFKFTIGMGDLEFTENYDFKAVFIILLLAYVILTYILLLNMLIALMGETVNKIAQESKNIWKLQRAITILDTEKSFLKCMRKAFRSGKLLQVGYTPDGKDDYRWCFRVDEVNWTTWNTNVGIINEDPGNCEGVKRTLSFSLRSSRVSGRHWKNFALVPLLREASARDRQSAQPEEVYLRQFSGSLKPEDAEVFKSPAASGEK

Usually IC50 stands for the concentration needed to halve the response being measured. As usually defined, the solubility is the concentration that dissolves in the medium under given conditions. Regarding `O=C(Nc1ccc(OC(F)(F)F)cc1)N1CC=C(c2ncc([C@H](O)CO)cc2Cl)CC1` [Compound E2], the IC50 was 0.107 ± 0.0188 µM on human TRPV1 [1] and 0.0203 ± 0.0017 µM on human TRPV1 [2]. Moreover, the solubility in the data set “Aqueous solubility” (setting [3]) and in “Aqueous solubility” (setting [4]) was over 50 µM each time.

Take `O=C(Nc1ccc(C(F)(F)F)c(F)c1)N1CCC(F)(c2ncc([C@H](O)CO)cc2Cl)CC1` [Compound F1]: the IC50 was determined as 0.0186 ± 0.0068 µM on human TRPV1 [1] and 0.009 ± 0.0023 µM on human TRPV1 [2]. For the same molecule, the solubility in “Aqueous solubility” (setting [3]) was over 50 µM; in “Aqueous solubility” (setting [4]) it was 22.6 µM (≈ 10.8 µg/mL).

Regarding `CCOC(=O)c1cnc(C2=CCN(C(=O)Nc3ccc(C(F)(F)F)cc3)CC2)c(Cl)c1` [Compound F2], the results for the IC50 at human TRPV1 [1] and at human TRPV1 [2] were 0.108 ± 0.0243 µM and 0.0629 ± 0.0088 µM, respectively. For the same molecule, the solubility in the data set “Aqueous solubility” (setting [3]) is 1 µM (≈ 0.454 µg/mL); in the data set “Aqueous solubility” (setting [4]), 3 µM (≈ 1.36 µg/mL).

In the case of `COC(=O)Cc1cnc(C2=CCN(C(=O)Nc3ccc(C(F)(F)F)cc3)CC2)c(Cl)c1` [Compound F6], the IC50 on human TRPV1 [1] amounted to 0.864 µM; at human TRPV1 [2], 0.467 µM. Moreover, the solubility was over 50 µM in “Aqueous solubility” (setting [3]) and 9.2 µM (≈ 4.18 µg/mL) in the data set “Aqueous solubility” (setting [4]).

`CC(O)c1cnc(C2=CCN(C(=O)Nc3ccc(C(F)(F)F)cc3)CC2)c(Cl)c1` (centres unmarked) [Compound G2]: the results for the IC50 at human TRPV1 [1] and on human TRPV1 [2] were 0.112 ± 0.0223 µM and 0.0848 ± 0.0088 µM, respectively. Further, the solubility in “Aqueous solubility” (setting [3]) is over 50 µM; in “Aqueous solubility” (setting [4]) it was 38.2 µM (≈ 16.3 µg/mL).

For `O=C(Nc1ccc(C(F)(F)F)cc1)N1CC=C(c2ncc(CO)cc2Cl)CC1` [Compound J2], the values for the IC50 at human TRPV1 [1] and at human TRPV1 [2] were 0.129 ± 0.026 µM and 0.0417 ± 0.0044 µM, respectively. The solubility in “Aqueous solubility” (setting [3]) and in the data set “Aqueous solubility” (setting [4]) was over 50 µM each time.

Regarding `O=C(Nc1ccc(C(F)(F)F)cc1)N1CCC(F)(c2ncc([C@H](O)CO)cc2Cl)CC1` [Compound N1, (S)-4-(3-chloro-5-(1,2-dihydroxyethyl)pyridin-2-yl)-4-fluoro-N-(4-(trifluoromethyl)phenyl)piperidine-1-carboxamide], the figures for the IC50 at human TRPV1 [1] and on human TRPV1 [2] were 0.0387 ± 0.0053 µM and 0.0063 ± 0.0008 µM, respectively. Moreover, the solubility in “Aqueous solubility” (setting [3]) is over 50 µM; in “Aqueous solubility” (setting [4]) it was 28 µM (≈ 12.9 µg/mL).

Take `O=C(Nc1ccc(C(F)(F)F)c(F)c1)N1CC=C(c2ncc([C@H](O)CO)cc2Cl)CC1` [Compound S1, (S)-3-Chloro-5-(1,2-dihydroxy-ethyl)-3′,6′-dihydro-2′H-[2,4′]bipyridinyl-1′-carboxylic acid (3-fluoro-4-trifluoromethyl-phenyl)amide]: the IC50 is 0.0535 ± 0.0163 µM on human TRPV1 [1] and 0.0163 ± 0.002 µM at human TRPV1 [2]. The solubility in “Aqueous solubility” (setting [3]) and in the data set “Aqueous solubility” (setting [4]) was over 50 µM in each case.

With `O=C(Nc1ccc(C(F)(F)F)cc1)N1CC=C(c2ncc([C@H](O)CO)cc2F)CC1` [Compound U1], the IC50 at human TRPV1 [1] is 0.0613 ± 0.0225 µM; on human TRPV1 [2], 0.0147 ± 0.0033 µM. In addition, the solubility in the data set “Aqueous solubility” (setting [3]) and in “Aqueous solubility” (setting [4]) was over 50 µM each time.

Regarding `O=C(Nc1ccc(C(F)(F)F)c(Cl)c1)N1CC=C(c2ncc([C@H](O)CO)cc2F)CC1` [Compound U3], the IC50 on human TRPV1 [1] was found to be 0.0279 ± 0.0099 µM; on human TRPV1 [2], 0.0135 µM. Further, the solubility in “Aqueous solubility” (setting [3]) was over 50 µM; in the data set “Aqueous solubility” (setting [4]) it was 26.4 µM (≈ 12.1 µg/mL).

Take `O=C(Nc1ccc(C(F)(F)F)cc1)N1CC=C(c2ncc([C@H](O)CO)cc2Cl)CC1` [Compound Z1, (S)-3-Chloro-5-(1,2-dihydroxy-ethyl)-3′,6′-dihydro-2′H-[2,4′]bipyridinyl-1′-carboxylic acid (4-trifluoromethyl-phenyl)amide]: the values for the IC50 on human TRPV1 [1] and at human TRPV1 [2] were 0.0758 ± 0.0124 µM and 0.0116 ± 0.0007 µM, respectively. The solubility in the data set “Aqueous solubility” (setting [3]) and in the data set “Aqueous solubility” (setting [4]) was over 50 µM each time.
